Results taken from patent US5948791A, “Quinoline derivatives for treating malaria” (Hoffmann-La Roche Inc., priority 1995, dated 1999).
In brackets after ≈: the same amount, converted by molar mass. Read-outs that look alike come from different tables or passages of the source.

Key:
Plasmodium berghei = experiment: animal or person; assay type: in vivo, Plasmodium berghei (strain ANKA) in mice; conditions: Plasmodium berghei, mice, blood smears 48 h after treatment
How it was run: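 Male albino mice (~25 g) infected i.v. on D0 with P. berghei ANKA (0.2 ml of 10^8 parasitized erythrocytes/ml); single s.c. and p.o. dose 24 h post-infection, 10 mg/kg screen then titration.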

Plasmodium falciparum K1 = experiment: Growth inhibition of Plasmodium falciparum K1 (chloroquine-resistant) in vitro, [G-3H]-hypoxanthin incorporation; assay type: cell-based, Plasmodium falciparum (strain K1); conditions: for IC50: Plasmodium falciparum, K1, 72 h, read-out: IC50 for P. falciparum K1; for Resistance index: ratio of the IC50 for K1 and the IC50 for NF54
How it was run: (§1)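 Asynchronous intraerythrocytic cultures in human A+ erythrocytes (0.7% parasitemia, 2.5% suspension) in RPMI 1640 with HEPES, NaHCO3 and human serum, exposed to compound titrated over 6-7 steps for 72 h at 37° C, 3% O2. Growth by [G-3H]-hypoxanthin incorporation against untreated controls; IC50 by logit regression.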

[1] = test system: Plasmodium falciparum strain NF54; experiment: Growth inhibition of Plasmodium falciparum NF54 (chloroquine-sensitive) in vitro, [G-3H]-hypoxanthin incorporation; assay type: cell-based; conditions: chloroquine-sensitive strain NF54, 72 h, read-out: IC50 for P. falciparum NF54
How it was run: as §1

[2] = po, single peroral dose of 10 mg/kg, read-out: Growth inhibition in % after po administration (GI%, percentage reduction of the parasitemia)
[3] = sc, single subcutaneous dose of 10 mg/kg, read-out: Growth inhibition in % after sc administration (GI%, percentage reduction of the parasitemia)

SMILES	inhibition in vivo at 10 mg/kg (Plasmodium berghei; [2]) [%]	inhibition in vivo at 10 mg/kg (Plasmodium berghei; [3]) [%]	IC50 (Plasmodium falciparum K1) [ng/mL]	Resistance index (Plasmodium falciparum K1)	IC50 [1] [ng/mL]
Cl.Cl.Clc1ccc2c(N[C@H]3CC[C@H](NCCc4c(Cl)cccc4Cl)CC3)ccnc2c1 [Example 101, trans-N1-(7-Chloro-quinolin-4-yl)-N4-[2-(2,6-dichloro-phenyl)-ethyl]-cyclohexane-1,4-diamine dihydrochloride]	72	84	2.9	1.1	2.7
Cl.Cl.Clc1ccc2c(N[C@H]3CC[C@H](NCc4ccc(Cl)c(Cl)c4)CC3)ccnc2c1 [Example 102, trans N1-(7-Chloro-quinolin-4-yl)-N4-(3,4-dichloro-benzyl)-cyclohexane-1,4-diamine dihydrochloride]	72	81	3.6	1.7	2.1
Cl.Cl.Clc1ccc2c(N[C@H]3CC[C@H](NCc4ccc5c(c4)OCO5)CC3)ccnc2c1 [Example 103, trans-N1 -Benzo[1,3]dioxol-5-ylmethyl-N4-(7-chloro-quinolin-4-yl)-cyclohexane-1,4-diamine dihydrochloride]	89	99.8	4.6	2.2	2.1
COc1cc(CCN[C@H]2CC[C@H](Nc3ccnc4cc(Cl)ccc34)CC2)ccc1O.Cl.Cl [Example 104, trans-4-{2-[4-(7-Chloro-quinolin-4-ylamino)-cyclohexylamino]-ethyl}-2-methoxy-phenol dihydrochloride]	63	100	20.2	5.6	3.6
COc1cccc(CCN[C@H]2CC[C@H](Nc3ccnc4cc(Cl)ccc34)CC2)c1OC.Cl.Cl [Example 105, trans-N1-(7-Chloro-quinolin-4-yl)-N4-[2-(2,3-dimethoxy-phenyl)-ethyl]-cyclohexane-1,4-diamine dihydrochloride]	55	99	15.3	4.5	3.4
COc1cc(CN[C@H]2CC[C@H](Nc3ccnc4cc(Cl)ccc34)CC2)cc(OC)c1 [Example 106, trans-N1-(7-Chloro-quinolin-4-yl)-N4-(3,5-dimethoxy-benzyl)-cyclohexane-1,4-diamine]	98	99.5	4.4 (≈ 10.3 nM)	2.9	1.5 (≈ 3.52 nM)
Cl.Cl.Clc1cccc(CN[C@H]2CC[C@H](Nc3ccnc4cc(Cl)ccc34)CC2)c1 [Example 107, trans-N1-(3-Chloro-benzyl)-N4-(7-chloro-quinolin-4-yl)-cyclohexane-1,4-diamine dihydrochloride]	84	95	3.4	2.4	1.4
COc1cc(OC)c(CN[C@H]2CC[C@H](Nc3ccnc4cc(Cl)ccc34)CC2)c(OC)c1.Cl.Cl [Example 108, trans N1-(7-Chloro-quinolin-4-yl)-N4-(2,4,6-trimethoxy-benzyl)-cyclohexane-1,4-diamine dihydrochloride]	110	100	18.4	4.0	4.6
Cl.Cl.Clc1ccc(CN[C@H]2CC[C@H](Nc3ccnc4cc(Cl)ccc34)CC2)c(Cl)c1 [Example 109, trans-N1-(7-Chloro-quinolin-4-yl)-N4-(2,4-dichloro-benzyl)-cyclohexane-1,4-diamine dihydrochloride]	75	91	3.8	2.1	1.8
COc1ccc(CN[C@H]2CC[C@H](Nc3ccnc4cc(Cl)ccc34)CC2)cc1OC.Cl.Cl [Example 110, trans-N1-(7-Chloro-quinolin-4-yl)-N4-(3,4-dimethoxy-benzyl)-cyclohexane-1,4-diamine dihydrochloride]	45	99.6	17.2	6.1	2.8
COc1ccc(CN[C@H]2CC[C@H](Nc3ccnc4cc(Cl)ccc34)CC2)c(OC)c1.Cl.Cl [Example 111, trans-N1 (7-Chloro-quinolin-4-yl)-N4-(2,4-dimethoxy-benzyl)-cyclohexane-1,4-diamine dihydrochloride]	25	99.8	10.4	3.6	2.9
COc1cc(CN[C@H]2CC[C@H](Nc3ccnc4cc(Cl)ccc34)CC2)cc(OC)c1OC.Cl.Cl [Example 112, trans-N1-(7-Chloro-quinolin-4-yl)-N4-(3,4,5-trimethoxy-benzyl)-cyclohexane-1,4-diamine dihydrochloride]	99	99.9	17.2	4.0	4.3
CN(C)c1ccc(CN[C@H]2CC[C@H](Nc3ccnc4cc(Cl)ccc34)CC2)cc1.Cl.Cl.Cl [Example 113, trans-N1-(7-Chloro-quinolin-4-yl)-N4-(4-dimethylamino-benzyl)-cyclohexane-1,4-diamine trihydrochloride]	99.7	99.9	7.6	2.5	3
Cl.Cl.Fc1cccc(F)c1CN[C@H]1CC[C@H](Nc2ccnc3cc(Cl)ccc23)CC1 [Example 114, trans-N1-(7-Chloro-quinolin-4-yl)-N4-(2,6-difluoro-benzyl)-cyclohexane-1,4-diamine dihydrochloride]	99	99.9	8.4	2.9	2.9
